Converted amounts (≈) assume the structure as drawn.
Experiments:
Assay type in all cases: functional
Klebsiella pneumoniae = experiment: Antibacterial activity against multidrug-resistant Klebsiella pneumoniae MTCC 2405 by broth dilution method
Proteus vulgaris = experiment: Antibacterial activity against multidrug-resistant Proteus vulgaris MTCC 1771 by broth dilution method
Escherichia coli = experiment: Antibacterial activity against multidrug-resistant Escherichia coli MTCC 1667 by broth dilution method
Salmonella typhi = experiment: Antibacterial activity against multidrug-resistant Salmonella enterica subsp. enterica serovar Typhi MTCC 734 by broth dilution method
Pseudomonas aeruginosa = experiment: Antibacterial activity against multidrug-resistant Pseudomonas aeruginosa by broth dilution method
Staphylococcus aureus = experiment: Antibacterial activity against multidrug-resistant Staphylococcus aureus MTCC 737 by broth dilution method
[1] = system: Staphylococcus epidermidis; experiment: Antibacterial activity against multidrug-resistant Staphylococcus epidermidis MTCC 435 by broth dilution method

## CN(C)[C@@H]1C(O)=C(C(N)=O)C(=O)[C@@]2(O)C(O)=C3C(=O)c4c(O)cccc4[C@@](C)(O)[C@H]3[C@H](O)[C@@H]12 [OXYTETRACYCLINE]
Klebsiella pneumoniae
  MIC: 12.5 µg/mL (≈ 27.1 µM)
Proteus vulgaris
  MIC: 12.5 µg/mL (≈ 27.1 µM)
Escherichia coli
  MIC: 6.25 µg/mL (≈ 13.6 µM)
Salmonella typhi
  MIC: 3 µg/mL (≈ 6.52 µM)
Pseudomonas aeruginosa
  MIC: 12.5 µg/mL (≈ 27.1 µM)
Staphylococcus aureus
  MIC: 3 µg/mL (≈ 6.52 µM)
[1]
  MIC: 3 µg/mL (≈ 6.52 µM)
